The values that follow come from patent US12187718B1, “1-cyclopropyl-6-fluoro-7-(4-((5-(4-methoxybenzylideneamino)-2-thioxo-1,3,4-thiadiazol-3(2H)-yl)methyl)piperazin-1-yl)-4-oxo-1,4-dihydroquinoline-3-carboxylic acid as an anti-inflammatory and anticancer compound” (KING FAISAL UNIVERSITY, priority 2023, dated 2025).

Assay [1] addresses Bovine Serum Albumin (Bos taurus, UniProt P02769). Briefly: Bovine Serum Albumin Assay (BSA), inhibition of protein denaturation. Format: biochemical. The following applies: BSA 0.4% w/v, pH 6.4, 72° C. for 10 minutes, 20-100 μg/mL, turbidity at 660 nm. Here is the method:
In vitro-inflammatory activities of the tested samples were determined using a modified method of the BSA assay reported by Williams et al. BSA solution (0.4%, w/v) was prepared in Tris Buffered Saline. The pH was adjusted to 6.4 with glacial acetic acid. Different dilutions of 20, 40, 60, 80, and 100 μg/mL of the stock solutions were added to test tubes containing 1 mL of 0.4%, w/v BSA buffer solution. Both negative (solvent) and positive (aspirin) controls were assayed in a similar manner. The solutions were then heated in a water bath at 72° C. for 10 minutes and cooled for 20 minutes under laboratory conditions. The turbidity of the solutions (level of protein precipitation) was measured at 660 nm in Spectrophotometer (V-770 UV-Visible/NIR Spectrophotometer).
The percentage inhibition of precipitation (protein denaturation) was determined relative to the negative control using the following equation:
[formula] % Anti-Denaturation Activity=% Inhibition of Protein Denaturation=% Anti-inflammatory Activity

The subject of assay [2] is human osteosarcoma cells (MG-63). Briefly: Cytotoxicity by SRB assay, MG-63 cells. Format: cell-based. The following applies: osteosarcoma (MG-63) cells, 72 h, 0.01 μM to 100 μM. Here is the method: (§1) The human prostate cancer cells (PC3) and human osteosarcoma cells (MG-63) were obtained from Nawah Scientific Inc. (Mokatam, Cairo, Egypt) and cultured in DMEM (Dulbecco's modified eagle's medium), Gibco, USA, supplemented with fetal bovine serum (FBS) at a concentration of 10% and 100 U/mL of penicillin and streptomycin (PS). The Cells were incubated at 37° C. in a humidified environment that contained 5% CO2.
(§2) Cells were seeded in 96-well plates as aliquots of 100 μL cell suspension and incubated in a complete media for 24 h. afterward, cells were treated with N′-(1-naphthoyloxy)-2-(benzo[d]thiazol-2-yl)acetimidamide at diverse concentrations ranging from 0.01 μM to 100 μM for 72 h. Then, cells were fixed at 4° C. for one hour with 150 μL of 10% trichloroacetic acid (TCA). After washing the cells five times with distilled water, 70 μL of sulforhodamine (SRB) solution (0.4% w/v) was added and incubated for 10 min at room temperature in a dark place. […] Then, 150 μL of Tris pH 10.5 (10 mM) was added, and the absorbance was measured at 540 nm using a BMG LABTECH®-FLUOstar Omega microplate reader (Ortenberg, Germany). Half maximal inhibitory concentrations (IC50) values were calculated for each experiment using GraphPad Prism 6 software. […]
(§3) The inhibition was calculated using the following equation: Inhibition %=100−Average Viability

For assay [3], the system named is human prostate cancer cells (PC3). Put plainly: Cytotoxicity by SRB assay, PC3 cells. It counts as cell-based. The following applies: androgen-independent metastatic human prostate cancer cells (PC3), 72 h, 0.01 μM to 100 μM. Here is the method: as §1, §2, §3
Background: The SRB assay estimates cell density from bound dye.

Chain of Bovine Serum Albumin (P02769 25-607): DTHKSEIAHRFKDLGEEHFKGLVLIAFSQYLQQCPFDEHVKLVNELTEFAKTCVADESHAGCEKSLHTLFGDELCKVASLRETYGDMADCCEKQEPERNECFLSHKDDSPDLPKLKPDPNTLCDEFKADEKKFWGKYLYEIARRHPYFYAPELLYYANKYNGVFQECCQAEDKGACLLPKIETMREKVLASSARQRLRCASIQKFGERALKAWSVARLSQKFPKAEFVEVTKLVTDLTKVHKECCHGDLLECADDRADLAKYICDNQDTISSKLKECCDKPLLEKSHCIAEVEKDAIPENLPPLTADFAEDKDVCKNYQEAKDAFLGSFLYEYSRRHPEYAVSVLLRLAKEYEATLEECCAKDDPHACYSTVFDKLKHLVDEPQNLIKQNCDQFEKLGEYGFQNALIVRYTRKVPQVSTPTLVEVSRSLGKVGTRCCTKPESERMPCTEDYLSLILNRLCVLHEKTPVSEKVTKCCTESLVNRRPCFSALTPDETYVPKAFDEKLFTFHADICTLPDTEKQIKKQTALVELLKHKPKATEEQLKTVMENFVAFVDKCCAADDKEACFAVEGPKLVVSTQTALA

With `COc1ccc(/C=N/c2nn(CN3CCN(c4cc5c(cc4F)c(=O)c(C(=O)O)cn5C4CC4)CC3)c(=S)s2)cc1` [1-cyclopropyl-6-fluoro-7-(4-((5-(4-methoxybenzylideneamino)-2-thioxo-1,3,4-thiadiazol-3(2H)-yl)methyl)piperazin-1-yl)-4-oxo-1,4-dihydroquinoline-3-carboxylic acid], in assay [1], the “in vitro anti-inflammatory activity (inhibition of protein denaturation)” value is “considerable anti-inflammatory effect”. For the same molecule, the “antiproliferative activity against MG-63 cells” value in assay [2] is reported as “excellent antiproliferative activities”. Further, the “antiproliferative activity against PC3 cells” value in assay [3] was “excellent antiproliferative activities”.
